Test results reported in patent US20220143198A1, “COMPOSITIONS AND METHODS RELATED TO TETHERED KETHOXAL DERIVATIVES” (The University of Chicago, priority 2019, published 2022).

Legend:
[1] = test system: guanosine; test: Reversibility of kethoxal derivatives using GTP for competition (LCMS of free guanosine); format: physicochemical; conditions: 1:1 ratio
[2] = test system: guanosine; test: Reactivity of kethoxal derivatives with guanosine (conversion rates of guanosine); format: biochemical
[3] = pH = 7.0, 10 min, excess GTP added after 10 min
[4] = pH = 7.0, 2 h, excess GTP competitor
[5] = pH = 7.8, S1:S2 = 2:1 (S1 guanosine, S2 kethoxal derivative)

CCN(CC)C(C)C(=O)C=O (centres unmarked)
Conversion of guanosine under competition condition [1, 3]: 66.9% | Conversion of guanosine under competition condition [1, 4]: 66.1% | Conversion of guanosine under competition condition ([1]; pH = 7.0, 24 h, excess GTP competitor): 36.3%

O=CC(=O)c1ccc([N+](=O)[O-])cc1
Conversion of guanosine under competition condition [1, 3]: 48.0% | Conversion of guanosine under competition condition [1, 4]: 13.5%

CC(OCCN=[N+]=[N-])C(=O)C=O (centres unmarked) [drawing 31]
Conversion rate of guanosine ([2]; pH = 7.8, S1:S2 = 1:1): 86.9% | Conversion rate of guanosine ([2]; pH = 7.8, S1:S2 = 1:2): 97.4% | Conversion rate of guanosine [2, 5]: 51.6%

CC(C)(OCCN=[N+]=[N-])C(=O)C=O [drawing 32]
Conversion rate of guanosine ([2]; pH = 7.8, S1:S2 = 1:1): 81.6% | Conversion rate of guanosine ([2]; pH = 7.8, S1:S2 = 1:2): 97.4% | Conversion rate of guanosine [2, 5]: 51.3%

[N-]=[N+]=NCCOCC(=O)C=O [drawing 33]
Conversion rate of guanosine ([2]; pH = 7.8, S1:S2 = 1:1): 78.6% | Conversion rate of guanosine ([2]; pH = 7.8, S1:S2 = 1:2): 95.4% | Conversion rate of guanosine [2, 5]: 51.3%

CC(OC(=O)CN=[N+]=[N-])C(=O)C=O (centres unmarked) [drawing 34]
Conversion rate of guanosine ([2]; pH = 7.8, S1:S2 = 1:1): 77.5% | Conversion rate of guanosine ([2]; pH = 7.8, S1:S2 = 1:2): 92.1% | Conversion rate of guanosine [2, 5]: 43.6%

CC(N=[N+]=[N-])C(=O)C=O (centres unmarked) [drawing 35]
Conversion rate of guanosine ([2]; pH = 7.8, S1:S2 = 1:1): 71.2% | Conversion rate of guanosine ([2]; pH = 7.8, S1:S2 = 1:2): 90.3% | Conversion rate of guanosine ([2]; pH = 7.8, S1:S2 = 1:3): 96.5% | Conversion rate of guanosine [2, 5]: 38.0%

CC(Br)C(=O)C=O (centres unmarked) [drawing 36]
Conversion rate of guanosine ([2]; pH = 7.8, S1:S2 = 1:1): 67.2% | Conversion rate of guanosine ([2]; pH = 7.8, S1:S2 = 1:2): 89.9% | Conversion rate of guanosine ([2]; pH = 7.8, S1:S2 = 1:3): 92.2% | Conversion rate of guanosine [2, 5]: 35.8%

[N-]=[N+]=NCCCC(=O)C=O [drawing 39]
Conversion rate of guanosine ([2]; pH = 7.8, S1:S2 = 1:1): 48.0% | Conversion rate of guanosine ([2]; pH = 7.8, S1:S2 = 1:2): 70.5% | Conversion rate of guanosine ([2]; pH = 7.8, S1:S2 = 1:3): 88.9% | Conversion rate of guanosine ([2]; pH = 7.8, S1:S2 = 1:5): 89.2% | Conversion rate of guanosine [2, 5]: 23.8%

CC(C(=O)C=O)N(C)C(=O)CN=[N+]=[N-] (centres unmarked) [drawing 40]
Conversion rate of guanosine ([2]; pH = 7.8, S1:S2 = 1:1): 40.2% | Conversion rate of guanosine ([2]; pH = 7.8, S1:S2 = 1:2): 66.7% | Conversion rate of guanosine ([2]; pH = 7.8, S1:S2 = 1:3): 74.9% | Conversion rate of guanosine ([2]; pH = 7.8, S1:S2 = 1:5): 83.2%

[N-]=[N+]=NCCOCCC(=O)C=O [drawing 41]
Conversion rate of guanosine ([2]; pH = 7.8, S1:S2 = 1:1): 41.1% | Conversion rate of guanosine ([2]; pH = 7.8, S1:S2 = 1:2): 60.0% | Conversion rate of guanosine ([2]; pH = 7.8, S1:S2 = 1:3): 66.4% | Conversion rate of guanosine ([2]; pH = 7.8, S1:S2 = 1:5): 73.6% | Conversion rate of guanosine [2, 5]: 25.2%

[N-]=[N+]=NCCOC(F)C(=O)C=O (centres unmarked) [drawing 43]
Conversion rate of guanosine ([2]; pH = 7.8, S1:S2 = 1:1): 30.9% | Conversion rate of guanosine ([2]; pH = 7.8, S1:S2 = 1:2): 49.6% | Conversion rate of guanosine ([2]; pH = 7.8, S1:S2 = 1:3): 69.5% | Conversion rate of guanosine ([2]; pH = 7.8, S1:S2 = 1:5): 76.7% | Conversion rate of guanosine ([2]; pH = 7.8, S1:S2 = 1:10): 81.6%

[N-]=[N+]=NCCOC(F)(F)C(=O)C=O [drawing 44]
Conversion rate of guanosine ([2]; pH = 7.8, S1:S2 = 1:1): 14.7% | Conversion rate of guanosine ([2]; pH = 7.8, S1:S2 = 1:2): 28.9% | Conversion rate of guanosine ([2]; pH = 7.8, S1:S2 = 1:3): 38.7% | Conversion rate of guanosine ([2]; pH = 7.8, S1:S2 = 1:5): 63.1% | Conversion rate of guanosine [2, 5]: 8.5%

CC(OCCN=[N+]=[N-])C(=O)C=O (centres unmarked) [drawing 46]
Conversion rate of guanosine ([2]; pH = 7.0, S1:S2 = 1:1): 70.6% | Conversion rate of guanosine ([2]; pH = 7.0, S1:S2 = 1:2): 93.7% | Conversion rate of guanosine ([2]; pH = 7.0, S1:S2 = 2:1): 39.6%

CC(C)(OCCN=[N+]=[N-])C(=O)C=O [drawing 47]
Conversion rate of guanosine ([2]; pH = 7.0, S1:S2 = 1:1): 46.7% | Conversion rate of guanosine ([2]; pH = 7.0, S1:S2 = 1:2): 76.6% | Conversion rate of guanosine ([2]; pH = 7.0, S1:S2 = 2:1): 23.6%

[N-]=[N+]=NCCOCC(=O)C=O [drawing 48]
Conversion rate of guanosine ([2]; pH = 7.0, S1:S2 = 1:1): 52.2% | Conversion rate of guanosine ([2]; pH = 7.0, S1:S2 = 1:2): 79.2% | Conversion rate of guanosine ([2]; pH = 7.0, S1:S2 = 2:1): 30.3%

CC(OC(=O)CN=[N+]=[N-])C(=O)C=O (centres unmarked) [drawing 49]
Conversion rate of guanosine ([2]; pH = 7.0, S1:S2 = 1:1): 50.1% | Conversion rate of guanosine ([2]; pH = 7.0, S1:S2 = 1:2): 81.3% | Conversion rate of guanosine ([2]; pH = 7.0, S1:S2 = 2:1): 29.5%

CC(N=[N+]=[N-])C(=O)C=O (centres unmarked) [drawing 50]
Conversion rate of guanosine ([2]; pH = 7.0, S1:S2 = 1:1): 46.7% | Conversion rate of guanosine ([2]; pH = 7.0, S1:S2 = 1:2): 79.2% | Conversion rate of guanosine ([2]; pH = 7.0, S1:S2 = 1:4): 95.3% | Conversion rate of guanosine ([2]; pH = 7.0, S1:S2 = 2:1): 22.0%

CC(Br)C(=O)C=O (centres unmarked) [drawing 51]
Conversion rate of guanosine ([2]; pH = 7.0, S1:S2 = 1:1): 40.4% | Conversion rate of guanosine ([2]; pH = 7.0, S1:S2 = 1:2): 81.2% | Conversion rate of guanosine ([2]; pH = 7.0, S1:S2 = 2:1): 22.4%

[N-]=[N+]=NCCCC(=O)C=O [drawing 54]
Conversion rate of guanosine ([2]; pH = 7.0, S1:S2 = 1:1): 40.8% | Conversion rate of guanosine ([2]; pH = 7.0, S1:S2 = 1:2): 63.2% | Conversion rate of guanosine ([2]; pH = 7.0, S1:S2 = 1:4): 87.2% | Conversion rate of guanosine ([2]; pH = 7.0, S1:S2 = 2:1): 19.8%

CC(C(=O)C=O)N(C)C(=O)CN=[N+]=[N-] (centres unmarked) [drawing 55]
Conversion rate of guanosine ([2]; pH = 7.0, S1:S2 = 1:1): 46.2% | Conversion rate of guanosine ([2]; pH = 7.0, S1:S2 = 1:2): 64.2% | Conversion rate of guanosine ([2]; pH = 7.0, S1:S2 = 1:4): 84.7% | Conversion rate of guanosine ([2]; pH = 7.0, S1:S2 = 2:1): 20.4%

[N-]=[N+]=NCCOCCC(=O)C=O [drawing 56]
Conversion rate of guanosine ([2]; pH = 7.0, S1:S2 = 1:1): 38.3% | Conversion rate of guanosine ([2]; pH = 7.0, S1:S2 = 1:2): 49.6% | Conversion rate of guanosine ([2]; pH = 7.0, S1:S2 = 2:1): 16.8%

O=CC(=O)c1ccccc1 [drawing 57]
Conversion rate of guanosine ([2]; pH = 7.0, S1:S2 = 1:1): 22.5% | Conversion rate of guanosine ([2]; pH = 7.0, S1:S2 = 1:2): 33.2% | Conversion rate of guanosine ([2]; pH = 7.0, S1:S2 = 1:4): 51.5% | Conversion rate of guanosine ([2]; pH = 7.0, S1:S2 = 2:1): 9.9%
